Reference: US8158586B2, “Inhibitors of protein kinases and uses thereof” (priority 2005, dated 2012)
“And” between values parts separate entries of the source, which are not always exact repeats. Equal entries are not always repeated. Marks after values point to notes of the source that are not given here. Positions of bridges follow the written chain, without caps; N, C: chain ends. Non-standard residues stand in square brackets, D forms with d. Residues, ends and D or L forms follow the SMILES beside them. Chains are numbered I, II in the order given. *: point of attachment. PNA(A) = NCCN(CC(=O)*)C(=O)Cn1cnc2c(N)ncnc21; Adenin9ylacetyl = Nc1ncnc2c1ncn2CC(=O)*; N(CH2CH2NHAc)Gly = CC(=O)NCCNCC(=O)O

Experiments:
Akt/PKB = Akt/PKB (Homo sapiens, UniProt P31749); assay: Luminescence Kinase Glo assay, Akt/PKB; type: biochemical; conditions: 150000.0
Sequence of Akt/PKB (P31749 whole entry): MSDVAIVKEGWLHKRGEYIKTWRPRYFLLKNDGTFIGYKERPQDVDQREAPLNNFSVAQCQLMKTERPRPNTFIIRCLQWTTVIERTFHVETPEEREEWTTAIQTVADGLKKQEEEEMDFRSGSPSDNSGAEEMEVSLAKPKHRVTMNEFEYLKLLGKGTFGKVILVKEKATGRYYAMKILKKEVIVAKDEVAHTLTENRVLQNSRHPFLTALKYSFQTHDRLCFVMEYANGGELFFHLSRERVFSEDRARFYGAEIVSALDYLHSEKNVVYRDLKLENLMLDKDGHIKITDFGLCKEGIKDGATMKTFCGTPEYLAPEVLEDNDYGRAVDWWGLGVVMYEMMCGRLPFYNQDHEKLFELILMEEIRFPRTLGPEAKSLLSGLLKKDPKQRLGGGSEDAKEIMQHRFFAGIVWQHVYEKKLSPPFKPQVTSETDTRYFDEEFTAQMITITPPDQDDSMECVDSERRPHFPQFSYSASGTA
Description: The ability of the PKI compounds to inhibit PKA, CDK2, Akt/PKB, MAPKp38 and CK2a2 protein kinases was assessed using the Luminescence Kinase Glo® Kit (Promega V6711) according to the manufacturer's instructions. In brief the protocol was as follows:
All kinases were prepared in their respective 1× buffers. 20 μL of […] reaction buffer was added to each well. 10 μL of PKI compound and 10 μL of the test kinase solution were added followed by 10 μL of the Reaction Solution (containing activators, ATP and substrate). The reactions were incubated at 30° C. for 30 min and then 50 μL of Kinase-Glo® was added. Luminescence was measured after 10-15 min on a Galaxy reader.

[1] = tested on: MRP-1 expression in H-661 NSCLC cells; assay: MRP-1 expression in H-661 NSCLC cells, flow cytometry; type: cell-based; conditions: H-661 control cell population exposed to doxorubicin for 72 h
Description: (§1) The protocol used for fixing the cells for flow cytometry is as follows. A minimum of 1.0×10^6 cells was used in each instance. Cells were trypsinized and spun down at 1,000/5 min at 4° C. All the medium was removed and the cells resuspended in 500 μl of 1×PBS, pH 7.1. The cell suspension was added into 5 mls of 1% paraformaldehyde/PBS on ice and fixed for 15 min on ice. Cells were then centrifuged at 1,000/5 min and resuspended in 10 mls of 1×PBS. Cells were centrifuged again at 1,000/5 min and resuspended in 2 mls of 70% ETOH and kept at −20° C. until needed (up to 1 week). At which time, 2 mls of 1×PBS containing 1% BSA/0.02% NaN3 was added to each tube and the cells were left on ice for 5 min to give the cells time to rehydrate. Cells were then centrifuged at 1,000/5 min and the ETOH/PBS mix removed. […]
(§2) In view of the key role of the Pgp170 and MRP-1 proteins in MDR, the effect of the PKI compounds on expression of these proteins in LS180 colon cancer cells and H-661 NSCLC cells was investigated. […] The number of cells individually analysed amounted to approximately 50,000 with a statistical error of about 0.08%.
(§3) The increase in the expression of P-gp and MRP-1 was assessed by comparing the % of cells expressing the protein in question in the presence and absence of doxorubicin (i.e. the ratio A/B in the Tables).

LS180 colon cancer cells = assay: Rhodamine influx and efflux in LS180 colon cancer cells; type: cell-based; conditions: doxorubicin exposed controls
Description: (§4) The amount of rhodamine influx and efflux following treatment of LS180 colon cancer cells and H-661 NSCLC cells with the PKI compounds was also investigated. The measurement of rhodamine efflux and influx is a common procedure that provides a quantitative estimation of the level of multidrug resistance due to typical MDR and non-P-gp MDR. Both exogenous treatment using 5 μg/mL of the PKI compounds provided at the same time as doxorubicin, and endogenous incorporation, in which a single dose of 5 mM was used with the standard pinocytic endocytosis protocol, were investigated.
(§5) The MDR-1 pump functions only as an efflux pump, however, it modulates the cell entry of rhodamine (that can diffuse through the membrane). Upon toxicant exposure, rhodamine accumulates in the cells. Ratios of rhodamine fluorescence in doxorubicin exposed versus untreated controls (CT) are lower if the pump is inhibited.

[2] = tested on: MRP-1 expression in LS180 colon cancer cells; assay: MRP-1 expression in LS180 colon cancer cells, flow cytometry; type: cell-based; conditions: LS180 control cell population exposed to doxorubicin for 72 h
Description: as §1, §2, §3

[3] = tested on: PKCα expression in H-661 NSCLC cells; assay: Expression of PKCα in H-661 cells, flow cytometry; type: cell-based; conditions: H-661 control cells exposed to doxorubicin for 72 h
Description: (§6) The effect of compounds 1 to 10 on doxorubicin-induced expression of PKCα in LS180 colon cancer cells and H-661 NSCLC cells was investigated. Cells were exposed to doxorubicin (50 ng/mL) for 3 days prior to exogenous treatment with the PKI compounds at a concentration of 5 μM. Results were acquired by flow cytometry after labelling of the cells with the PKC-alpha #sc 208 antibody.
as §1, with “removed. The cells were resuspended in 5 mls of 1×PBS and allowed to sit on ice for 5 min.” for “removed.”

[4] = tested on: Pgp expression in LS180 colon cancer cells; assay: Pgp expression in LS180 colon cancer cells, flow cytometry; type: cell-based; conditions: LS180 control cell population exposed to doxorubicin for 72 h
Description: as §1, §2, §3

[5] = tested on: Pgp expression in H-661 NSCLC cells; assay: Pgp expression in H-661 NSCLC cells, flow cytometry; type: cell-based; conditions: H-661 control cell population exposed to doxorubicin for 72 h
Description: as §1, §2, §3

H-661 NSCLC cells = assay: Rhodamine influx and efflux in H-661 NSCLC cells; type: cell-based; conditions: control cells exposed to doxorubicin
Description: as §4, §5

[6] = tested on: PKCα expression in LS180 colon cancer cells; assay: Expression of PKCα in LS180 cells, flow cytometry; type: cell-based; conditions: LS180 control cells exposed to doxorubicin for 72 h
Description: as §6
as §1, with “removed. The cells were resuspended in 5 mls of 1×PBS and allowed to sit on ice for 5 min.” for “removed.”

Structure (SMILES): CC(=O)N[C@@H](CCCCN)C(=O)N[C@@H](CC(C)C)C(=O)N[C@@H](CCCNC(=N)N)C(=O)N[C@@H](CCCNC(=N)N)C(=O)N[C@@H](C)C(=O)N[C@@H](CCCCNC(=O)CN(CCN)C(=O)Cn1cnc2c(N)ncnc21)C(=O)N[C@@H](CC(C)C)C(=O)NCC(=O)N[C@@H](CC(C)C)C(=O)NCC(=O)N[C@@H](CC(=O)O)C(=O)N[C@@H](CC(=O)O)C(N)=O [Compound 8] (Ac-KLRRAK(PNA(A))LGLGDD-NH2)
- % Inhibition Akt/PKB (Akt/PKB): 0%

Structure (SMILES): CC(=O)N[C@@H](CCCCN)C(=O)N[C@@H](CC(C)C)C(=O)N[C@@H](CCCNC(=N)N)C(=O)N[C@@H](CCCNC(=N)N)C(=O)N[C@@H](C)C(=O)N[C@@H](CCCCNC(=O)CN(CCN)C(=O)Cn1cnc2c(N)ncnc21)C(=O)N[C@@H](CCCNC(=N)N)C(=O)N[C@@H](Cc1ccccc1)C(=O)N[C@@H](CC(C)C)C(=O)N[C@@H](CCC(=O)O)C(=O)N[C@H](C(=O)N[C@@H](CC(=O)O)C(N)=O)C(C)C [Compound 7] (Ac-KLRRAK(PNA(A))RFLEVD-NH2)
- % Inhibition Akt/PKB (Akt/PKB): −7* %

Structure (SMILES): CC(=O)N[C@@H](CCCCN)C(=O)N[C@@H](Cc1ccccc1)C(=O)N[C@@H](CCCNC(=N)N)C(=O)N[C@@H](CCCNC(=N)N)C(=O)N[C@@H](CCCCNC(=O)CN(CCN)C(=O)Cn1cnc2c(N)ncnc21)C(=O)N[C@@H](CC(C)C)C(=O)N[C@@H](CCCNC(=N)N)C(=O)N[C@@H](CC(C)C)C(=O)N[C@@H](CCC(=O)O)C(=O)N[C@H](C(=O)N[C@@H](CC(=O)O)C(N)=O)C(C)C [Compound 6] (Ac-KFRRK(PNA(A))LRLEVD-NH2)
- % Inhibition Akt/PKB (Akt/PKB): −10* %

Structure (SMILES): CC(=O)NCCN(CC(=O)NCC(=O)N[C@@H](CS)C(=O)N[C@@H](CCCCN)C(=O)NCC(=O)N[C@@H](CCCCN)C(=O)N[C@@H](Cc1ccccc1)C(=O)N[C@@H](CCCCN)C(=O)N[C@@H](CCCNC(=N)N)C(N)=O)C(=O)Cn1cnc2c(N)ncnc21 [Compound 10] (Adenin9ylacetyl-[N(CH2CH2NHAc)Gly]GCKGKFKR-NH2; N-terminus and C-terminus assumed)
- % Inhibition Akt/PKB (Akt/PKB): 21%

Structure (SMILES): CC(=O)N[C@@H](CCCCN)C(=O)N[C@@H](Cc1ccccc1)C(=O)N[C@@H](CCCNC(=N)N)C(=O)N[C@@H](CCCNC(=N)N)C(=O)N[C@@H](CCCCNC(=O)CN(CCN)C(=O)Cn1cnc2c(N)ncnc21)C(=O)N[C@@H](CCCNC(=N)N)C(=O)NCC(=O)N[C@@H](CCCNC(=N)N)C(=O)N[C@@H](CCC(=O)O)C(=O)N[C@H](C(=O)N[C@@H](CC(=O)O)C(N)=O)C(C)C [Compound 5] (Ac-KFRRK(PNA(A))RGREVD-NH2)
- % Inhibition Akt/PKB (Akt/PKB): −6* %

Structure (SMILES): COc1cccc2c1C(=O)c1c(O)c3c(c(O)c1C2=O)C[C@@](O)(C(=O)CO)C[C@@H]3O[C@H]1C[C@H](N)[C@H](O)[C@H](C)O1 [doxorubicin]
- increase in number of MRP-1 labelled cells, average [1]: 12.05 times
- rhodamine accumulation (LS180 colon cancer cells): 1.58 times and 1.43 times and 1.37 times
- increase in number of MRP-1 labelled cells, average [2]: 3.41 times
- increase in log fluorescence relative intensity (PKCα), average [3]: 2.19 times
- increase in number of P-gp labelled cells, average [4]: 2.38 times
- increase in number of P-gp labelled cells, average [5]: 15.0 times
- increase in rhodamine retention (H-661 NSCLC cells): ~2.00 times
- increase in log fluorescence relative intensity (PKCα), average [6]: 1.99 times

Structure (SMILES): CC(=O)N[C@@H](CCCCN)C(=O)N[C@@H](CC(C)C)C(=O)N[C@@H](CCCCN)C(=O)N[C@@H](CCCCN)C(=O)N[C@@H](C)C(=O)N[C@@H](CCCCNC(=O)CN(CCN)C(=O)Cn1cnc2c(N)ncnc21)C(=O)N[C@@H](CC(C)C)C(=O)NCC(=O)N[C@@H](CC(C)C)C(N)=O [Compound 9] (Ac-KLKKAK(PNA(A))LGL-NH2; N-terminus and C-terminus assumed)
- % Inhibition Akt/PKB (Akt/PKB): 7%

Structure (SMILES): CC[C@H](C)[C@H](NC(=O)[C@H](CSSC[C@H](NC(=O)CNC(=O)CN(CCNC(C)=O)C(=O)Cn1cnc2c(N)ncnc21)C(=O)N[C@@H](CCCCN)C(=O)NCC(=O)N[C@@H](CCCCN)C(=O)N[C@@H](Cc1ccccc1)C(=O)N[C@@H](CCCCN)C(=O)N[C@@H](CCCNC(=N)N)C(N)=O)NC(=O)[C@H](Cc1c[nH]cn1)NC(C)=O)C(=O)NCC(=O)N[C@@H](CCCNC(=N)N)C(=O)N[C@@H](Cc1ccccc1)C(=O)N[C@@H](CCCCN)C(N)=O [Compound 1] (I: Adenin9ylacetyl-[N(CH2CH2NHAc)Gly]GCKGKFKR-NH2 / II: Ac-HCIGRFK-NH2; disulfide I:3-II:2; N-terminus and C-terminus assumed)
- % Inhibition Akt/PKB (Akt/PKB): −31* %
